Data taken from patent publication US9901592B2 (priority 2008, dated 2018).
≈ marks a conversion by molar mass, not a printed value. Where “and” joins values, the source holds several entries; their conditions need not be identical. Equal entries are not always repeated. Where two headings read alike, the source gives them in different places.

Columns and labels:
S. pneumoniae [1] = assay: microbe, parasite or virus in culture; format: cell-based
N. meningitidis = assay: MIC, CLSI broth microdilution, invasive isolates; format: cell-based; conditions: for MIC / MIC50 / MIC90: Neisseria meningitidis
Description: Example. […] Colonization of the nasopharynx (NP) by NM can lead to invasive meningococcal disease. Chemoprophylaxis is used to eradicate NP colonization and prevent transmission to nonimmune contacts. […] 62 isolates (91.9% blood culture) of NM were collected from 29 medical centers in North and South America and Europe (1997-2008). […] Serological identification was performed for serogroups (SGs) B, C, Y and W135.

S. aureus = format: cell-based
S. pneumoniae [2] = format: cell-based
pneumococci = assay: microbe, parasite or virus in culture; format: cell-based, S. pneumoniae
group A streptococci = assay: microbe, parasite or virus in culture; format: cell-based, S. pyogenes
Mycobacterium bovis BCG = format: cell-based; conditions: growth-arrested cells
M. pneumoniae = assay: microbe, parasite or virus in culture; format: cell-based
M. hominis = format: cell-based
U. parvum = assay: MIC testing in 10B broth (colour change); format: cell-based, Ureaplasma parvum
M. genitalium = format: cell-based; conditions: M. genitalium (5 isolates)
U. urealyticum = assay: MIC testing in 10B broth (colour change); format: cell-based
M. fermentans = format: cell-based; conditions: M. fermentans (15 isolates)
M. catarrhalis = assay: microbe, parasite or virus in culture; format: cell-based; conditions: Moraxella catarrhalis
[3] = Streptococcus pneumoniae, pneumococci, L4 mutations (27)
[4] = Ureaplasma urealyticum, U. urealyticum (10 isolates)

CO/N=C(\C(=O)N[C@@H]1C(=O)N2C(C(=O)O)=C(CSc3nc(=O)c(=O)[nH]n3C)CS[C@H]12)c1csc(N)n1 [CRO, ceftriaxone]
nonsusceptibility (S. pneumoniae [1]): 33.3%
% Susc. (N. meningitidis; CLSI (M100-S19, 2009) criteria): 100.0%
MIC (N. meningitidis; 62 N. meningitidis isolates): ≤ 0.015 µg/mL
MIC50 (N. meningitidis; 62 N. meningitidis isolates): ≤ 0.015 µg/mL
MIC90 (N. meningitidis; 62 N. meningitidis isolates): ≤ 0.015 µg/mL

CC[C@H]1OC(=O)[C@H](C)[C@@H](OC2CC(C)(OC)C(O)C(C)O2)[C@H](C)[C@@H](OC2OC(C)CC(N(C)C)C2O)[C@@](C)(OC)C[C@@H](C)C(=O)[C@H](C)[C@H]2N(CCCCn3cc(Cn4nnc5ccccc54)nn3)C(=O)O[C@]12C (some centres unmarked) [Entry 20e]
MIC (S. aureus): 8 µg/mL (≈ 7.79 µM)
MIC (S. pneumoniae [2]): ≦0.0625 μg/mL

CN(C)c1ccc(O)c2c1C[C@H]1C[C@H]3[C@H](N(C)C)C(O)=C(C(N)=O)C(=O)[C@@]3(O)C(O)=C1C2=O [Minocycline]
% Susc. (N. meningitidis; CLSI (M100-S19, 2009) criteria): 100.0%
MIC (N. meningitidis; 62 N. meningitidis isolates): 0.008 to 0.25 µg/mL (≈ 0.0175 to 0.546 µM)
MIC50 (N. meningitidis; 62 N. meningitidis isolates): 0.12 µg/mL (≈ 0.262 µM)
MIC90 (N. meningitidis; 62 N. meningitidis isolates): 0.12 µg/mL (≈ 0.262 µM)

Amoxicillin Clavulanate
MIC50 (pneumococci; pneumococci, L4 mutations (27)): 4 µg/mL
MIC90 (pneumococci; pneumococci, L4 mutations (27)): 8 µg/mL

COc1c(N2C[C@@H]3CCCN[C@@H]3C2)c(F)cc2c(=O)c(C(=O)O)cn(C3CC3)c12 [moxifloxacin]
MIC50 (group A streptococci; Streptococcus pyogenes): 0.25 µg/mL (≈ 0.623 µM)
MIC90 (group A streptococci; Streptococcus pyogenes): 0.25 µg/mL (≈ 0.623 µM)
MIC50 (pneumococci; [3]): 0.25 µg/mL (≈ 0.623 µM)
MIC90 (pneumococci; [3]): 0.5 µg/mL (≈ 1.25 µM)
MIC (pneumococci; Streptococcus pneumoniae, read-out: MIC range, pneumococci, L4 mutations (27)): 0.125 to 4 µg/mL (≈ 0.311 to 9.96 µM)
activity during growth arrest relative to gatifloxacin (Mycobacterium bovis BCG): 2 fold

C[C@H]1c2cccc(O)c2C(=O)C2=C(O)[C@]3(O)C(=O)C(C(N)=O)=C(O)[C@@H](N(C)C)[C@@H]3[C@@H](O)[C@@H]21 [Doxycycline, doxycycline]
MIC Range (M. pneumoniae): 0.016 to 0.25 µg/mL
MIC50 (M. pneumoniae; Mycoplasmoides pneumoniae): 0.125 µg/mL (≈ 0.281 µM)
MIC90 (M. pneumoniae; Mycoplasmoides pneumoniae): 0.25 µg/mL (≈ 0.563 µM)
MIC Range (M. hominis; M. hominis (13 isolates)): ≦0.008-0.016 μg/mL
MIC50 (M. hominis; Metamycoplasma hominis): 0.125 µg/mL (≈ 0.281 µM)
MIC90 (M. hominis; Metamycoplasma hominis): 8 µg/mL (≈ 18 µM)
MIC (M. hominis; Metamycoplasma hominis, 2 doxycycline-resistant M. hominis isolates): 8 to 16 µg/mL (≈ 18 to 36 µM)
MIC (U. parvum; 7 doxycycline-resistant Ureaplasma parvum): 4 to 16 µg/mL (≈ 9 to 36 µM)
MIC Range (U. parvum; U. parvum (10 isolates)): 0.031 to 16 µg/mL
MIC50 (U. parvum; Ureaplasma parvum, U. parvum (10 isolates), read-out: MIC50): 8 µg/mL (≈ 18 µM)
MIC90 (U. parvum; Ureaplasma parvum, U. parvum (10 isolates), read-out: MIC90): 16 µg/mL (≈ 36 µM)
MIC Range (M. genitalium): ≦0.008-0.031 μg/mL
MIC Range (U. urealyticum; U. urealyticum (10 isolates)): 0.031 to 32 µg/mL
MIC (U. urealyticum; Ureaplasma urealyticum, 4 doxycycline-resistant U. urealyticum): 4 to 32 µg/mL (≈ 9 to 72 µM)
MIC50 (U. urealyticum; [4]): 1 µg/mL (≈ 2.25 µM)
MIC90 (U. urealyticum; [4]): 16 µg/mL (≈ 36 µM)
MIC Range (M. fermentans): 0.016 to 0.5 µg/mL
MIC50 (M. fermentans; Mycoplasmopsis fermentans): 0.125 µg/mL (≈ 0.281 µM)
MIC90 (M. fermentans; Mycoplasmopsis fermentans): 0.5 µg/mL (≈ 1.13 µM)

CC[C@H]1OC(=O)[C@H](C)[C@@H](OC2CC(C)(OC)C(O)C(C)O2)[C@H](C)[C@@H](OC2OC(C)CC(N(C)C)C2O)[C@@](C)(OC)C[C@@H](C)C(=O)[C@H](C)[C@H]2N(CCCCn3cc(-c4cccnc4)nn3)C(=O)O[C@]12C (some centres unmarked) [Entry 20b]
MIC (S. aureus): 8 µg/mL (≈ 8.22 µM)
MIC (S. pneumoniae [2]): ≦0.0625 μg/mL

trimethoprim/sulfamethoxazole [TMP/SMX]
nonsusceptibility (S. pneumoniae [1]): 100.0%
MIC 50% (N. meningitidis; 62 N. meningitidis isolates): 0.5 µg/mL
MIC 90% (N. meningitidis; 62 N. meningitidis isolates): 2 µg/mL
MIC Range (N. meningitidis; 62 N. meningitidis isolates): ≦0.06-4 μg/ml
% Res. (N. meningitidis; CLSI (M100-S19, 2009) criteria): 59.7%
% Susc. (N. meningitidis; CLSI (M100-S19, 2009) criteria): 37.1%

CC1(C)S[C@@H]2[C@H](NC(=O)Cc3ccccc3)C(=O)N2[C@H]1C(=O)O [Pen G]
MIC50 (group A streptococci): 0.015 µg/mL (≈ 0.0449 µM)
MIC90 (group A streptococci): 0.015 µg/mL and 0.03 µg/mL
MIC Range (group A streptococci): <0.008 to 0.125 µg/mL and 0.008 to 0.015 µg/mL and <0.008 to 0.015 µg/mL and 0.015 µg/mL
MIC50 (pneumococci): 1 µg/mL (≈ 2.99 µM)
MIC90 (pneumococci): 2 µg/mL and 4 µg/mL
MIC range (pneumococci): 0.015 to 8 µg/mL

CC[C@H]1OC(=O)[C@H](C)[C@@H](O[C@H]2C[C@@](C)(OC)[C@@H](O)[C@H](C)O2)[C@H](C)[C@@H](O[C@@H]2O[C@H](C)C[C@H](N(C)C)[C@H]2O)[C@](C)(O)C[C@@H](C)C(=O)[C@H](C)[C@@H](O)[C@]1(C)O [Erythromycin, erythromycin A]
MIC90 (S. pneumoniae [1]; Streptococcus pneumoniae): > 32 µg/mL
MIC (N. meningitidis; 62 N. meningitidis isolates): 0.03 to 0.5 µg/mL (≈ 0.0409 to 0.681 µM)
MIC50 (N. meningitidis; 62 N. meningitidis isolates): 0.12 µg/mL (≈ 0.164 µM)
MIC90 (N. meningitidis; 62 N. meningitidis isolates): 0.25 µg/mL (≈ 0.341 µM)
MIC90 (M. catarrhalis): 0.25 µg/mL (≈ 0.341 µM)
MIC50 (pneumococci; [3]): > 64 µg/mL
MIC90 (pneumococci; [3]): > 64 µg/mL

C[C@H]1COc2c(N3CCN(C)CC3)c(F)cc3c(=O)c(C(=O)O)cn1c23 [Levo]
MIC50 (group A streptococci): 0.5 µg/mL (≈ 1.38 µM)
MIC90 (group A streptococci): 0.5 µg/mL and 1 µg/mL
MIC Range (group A streptococci): 0.5 to 1 µg/mL and 0.5 to 2 µg/mL
MIC50 (pneumococci): 1 µg/mL (≈ 2.77 µM)
MIC Range (pneumococci): 0.06 to 32 µg/mL
MIC range (pneumococci): 1 to 32 µg/mL
